Data from US7534455B2, “Herbal composition PHY906 and its use in chemotherapy” (Yale University, priority 2000, dated 2009).
Like-named read-outs stand apart in the source and are kept apart here.

Legend:
[1] = Pharmacokinetics of CPT-11/FU/LV in BDF-1 mice bearing Colon 38 tumor; assay type: in vivo; settings: triple combination CPT-11/FU/LV
From the text: The pharmacokinetic data of CPT-11/FU/LV in BDF-1 mice bearing Colon 38 tumor in the presence and absence of PHY906 are shown in FIGS. 18-20. PHY906-6 is a clinical batch of PHY906, containing 10% excipient (starch).

[2] = Determination of CPT-11 dose in non-tumor bearing BDF-1 mice (weight loss, death); assay type: in vivo; settings: single i.p. bolus
Description: Animal weight loss was monitored as an indication of toxicity caused by anticancer chemotherapy agents. The effect of CPT-11 on weight loss in non-tumor bearing BDF-1 mice was studied using six different dosages: 100, 200, 300, 400, 600, or 800 mg/kg body weight to determine the maximum tolerable dose in mice. A single bolus dose of CPT-11 was administered intraperitoneally (i.p.) at the beginning of the study, and weight loss was monitored daily for 12 days.
One dose of CPT-11 was administered i.p. to each mouse at the beginning of the study, and the weight loss of the animal was then monitored daily for 12 days.

[3] = Toxicity (tolerable dose, body weight loss, death) in nude mice bearing human HepG2 xenografts; assay type: in vivo, NCr-nude mice
Description: Weight loss was observed immediately after CPT-11 treatment and continued for six days in mice injected with 400 mg/kg of CPT-11. These animals gradually recovered their original body weight on day 12. […] The maximum tolerable dose of CPT-11 in nude mice bearing the human HepG2 xenografts was 200 mg/kg (data not shown).
Human HepG2 tumor cells were implanted into NCr-nude mice to test the effect of PHY906 on the antitumor activity of CPT-11. […] CPT-11 (200 mg/kg, i.p.) was given on day 0. PHY906 was given twice daily at 500 mg/kg starting on day 0.
Based upon the known pharmacological profiles of herbs contained in PHY906, it was speculated that the enhancing effects might act through immunological and/or hematological systems in normal mice. Therefore, experiments were designed to test the hypothesis in nude mice, which are deficient in immunological and hematological systems. Human hepatocellular carcinoma HepG2 cells were implanted into NCr-nude mice to test the effect of PHY906 on the antitumor activity of CPT-11. […] CPT-11 (200 mg/kg, i.p.) was given on day 0. PHY906 was given twice daily at 500 mg/kg starting on day 0 and continued for 8 days. As shown in 31, PHY906 enhanced the antitumor effect of CPT-11 on human HepG2 xenografts in nude mice.

colorectal cancer = settings: cited from earlier work; for Median survival time / Median time to disease progression: NS
[4] = Host toxicity (body weight loss, mortality, blood cell counts) in chemotherapy treated BDF-1 mice bearing Colon 38 tumor; assay type: in vivo
Description: Anti-Tumor Studies: Murine Colon 38 (1-2×10^6 cells in 0.1 ml PBS) or human HepG2 cells (1-2×10^6 cells in 0.1 ml PBS) were transplanted subcutaneously into BDF1 or NCr athymic nude mice, respectively. The length and width of the tumors were measured daily with sliding calipers. The tumor weight was estimated according to the following formula (Pizzorno G, Wiegand R, Lentz S, et al., Cancer Res. 52:1660-1665 (1992)): Tumor weight (mg)=length (mm)×width (mm)^2/2.
After 10 to 14 days, mice (five animals/group) with tumor weights ranging from 150-200 mg were selected for drug studies (Guo X, Lerner-Tung M, Chen H X, et al., Biochem Pharmacol 49:1111-1116 (1995)). Mice were sacrificed when the tumor size reached 10% of body weight. PHY906 was administered orally either alone or with anti-cancer chemotherapeutic agents. The effect of PHY906 on antitumor efficacy and the reduction of toxicity by the agents were evaluated. CPT-11 was given intraperitoneally (i.p.) 30 min after PHY906 administration with the selected dose. The regimen of FU/LV combination therapy was given as follows:
The first day of treatment was defined as day 0. PHY906 was given orally twice a day (10 am and 3 pm) for either 4 or 8 days beginning on day 0. For the control group, mice were administrated a vehicle, either PBS for i.p. or H2O for p.o. (oral administration). Animals were monitored for mortality, weight loss, and tumor size daily.
Blood Cell Counts: Blood (20 μl) was taken from mice on days 0, 3, 6, 9 and 12 with micro-capillary tubes. Blood was then be diluted to 200 μl with normal saline (0.85% Sodium Chloride). WBC, RBC and platelets were counted by a BAKER SYSTEM 9100™ […] (Biochem ImmunoSystems Inc., Allentown, Pa. 18103-9562).
PHY906 was evaluated as a modulator of CPT-11 therapy for toxic side effects in mice inoculated with Colon 38 tumor cells. Based on the previous findings (Example 2), a single bolus dose of 400 mg/kg CPT-11 was selected to study the effect of PHY906 on weight-loss associated with toxicity of CPT-11. To evaluate whether PHY906 impairs the antitumor efficacy of CPT-11, mice were implanted subcutaneously with Colon 38 tumor cells. Ten to 14 days after inoculation, mice were treated with CPT-11 (400 mg/kg, i.p.) in the absence or presence of PHY906, which was given orally twice a day at varying doses (125 mg/kg, 250 mg/kg, and 500 mg/kg). PHY906 treatment was continued at the dose indicated for 8 consecutive days.
Mice were divided into four groups with different treatment regimens: Group (A) treatment with vehicle; Group (B) treatment with a single dose of 400 mg/kg CPT-11 by i.p. injection; Group (C) treatment with PHY906 (500 mg/kg/b.i.d.) alone; or Group (D) treatment with a single dose of 400 mg/kg CPT-11 plus 500 mg/kg/b.i.d. PHY906 for 4 or 8 days. The sequence of each treatment regimen appears in Materials and Methods. As depicted in Table 9, 35 of 35 tumor-bearing mice (100%) from Group A and 15 of 15 mice (100%) from Group C survived treatment with either vehicle or PHY906 alone for 4 or 8 days, indicating no or very low toxicity for PHY906.

hepatocellular carcinoma = settings: cited from earlier work
[5] = Pharmacokinetics of capecitabine in animal models; assay type: in vivo, mouse
Description: (§1) Plasma Handling: The mouse plasma was separated from the blood by centrifugation at 10,000 g at 4° C. for 10 min.
a) Capecitabine-containing sample: The plasma (50 μl) was extracted with 200 μl of acetonitrile in the presence of 10 μl of 5-iodouracil (IU)(50 μg/ml) as an internal standard. After centrifugation, the supernatant from capecitabine-containing sample was dried by a speedvac, reconstituted with 50 μl of 0.1 M sodium acetate buffer (pH 4.8), and extracted with 1.3 ml of water-saturated ethyl acetate. The organic layer was separated after centrifugation (10,000 g at 4° C. for 10 min), dried by a speedvac and reconstituted with 100 μl of water.
(§2) The resultant analyte was then analyzed by HPLC with UV absorption and/or radioactivity.

[6] = Pharmacokinetics of gemcitabine (dFdC) and dFdU in plasma of PAN02 bearing BDF-1 mice; assay type: in vivo; settings: for AUC, dFdC + PHY906: PHY906 500 mg/kg 30 min before gemcitabine; for AUC, dFdC alone: gemcitabine 600 mg/kg
Description: as §1
b) Gemcitabine-containing plasma: The plasma (50 μl) was extracted with 200 μl of acetonitrile (ACN) in the presence of 5 μl of 0.1 mM AZT as an internal standard. After centrifugation, the supernatant was dried by a Speedvac, reconstituted with 100 μl of solution containing 2.5% ACN and 97.5% of 15 mM ammonium acetate (pH 5.0).
as §2
To determine, for a future clinical trial, if PHY906 would change the metabolism of gemcitabine, a pharmacokinetics analysis in mice bearing pancreatic cancer was performed. Mice were divided into three sets of 15: gemcitabine only, gemcitabine plus PHY906, and vehicle control. Each mouse in the set was bled twice at two different time points. Plasma was processed as described in Materials and Methods and analyzed by HPLC with radioactivity confirmation of peak identity and quantitation.

[7] = CPT-11 400 mg/kg, 1 day, alone, observed 14 days

Structure (SMILES): CCc1c2c(nc3ccc(OC(=O)N4CCC(N5CCCCC5)CC4)cc13)-c1cc3c(c(=O)n1C2)COC(=O)[C@]3(O)CC [CPT-11, Irinotecan]
- Level in tumor or liver tissues after PHY906 co-administration [1]: no significant change
- AUC in plasma after co-administration of PHY906 ([1]; PHY906-6): increases
- Dosages with little effect on body weight [2]: lower than 200 mg/kg
- Doses resulting in animal death on the second day [2]: greater than or equal to 600 mg/kg
- Doses mice were able to tolerate ([2]; 12 days): up to 400 mg/kg
- Maximum tolerable dose [3]: 200 mg/kg
- Response rate, second-line therapy (colorectal cancer; advanced colorectal cancer): 10%-15%
- Survival [4, 7]: 82.5%
- Total No. of Mice Survived N [4, 7]: 33
- Animal Death (Death/Total) ([4]; CPT-11 treated mice, observed for 14 days): 7/40

Structure (SMILES): O=c1[nH]cc(F)c(=O)[nH]1 [FU, 5-fluorouracil]
- AUCs of FU and its nucleoside/nucleotide metabolites (FU+FUR+FUMP) in plasma or liver after PHY906 co-administration [1]: change
- Response rate in patients with advanced disease (colorectal cancer; human, in vivo): 10%-12%

Structure (SMILES): CCc1c2c(nc3ccc(O)cc13)-c1cc3c(c(=O)n1C2)COC(=O)[C@]3(O)CC [SN-38]
- Level in plasma, liver, or tumor after PHY906 co-administration [1]: remains unchanged

Structure (SMILES): CCCCCOC(=O)Nc1nc(=O)n([C@@H]2O[C@H](C)[C@@H](O)[C@H]2O)cc1F [capecitabine, 5′-deoxy-5-fluoro-N-[(pentyloxy)carbonyl]-cytidine]
- Response rate (hepatocellular carcinoma; 55 patients with nonresectable hepatobiliary carcinoma): 13%
- Response rate (hepatocellular carcinoma; hepatocellular carcinoma / liver cancer, systemic chemotherapy): 13%
- Pharmacokinetic profile on co-administration of PHY906 [5]: did not alter the pharmacokinetic profile
- Median survival time (colorectal cancer; Hoff et al. 2001): 380 days
- Median time to disease progression (colorectal cancer; Hoff et al. 2001): 128 days
- Response rate (colorectal cancer; Hoff et al. 2001, P=0.0014): 21%
- Median survival time (colorectal cancer; Van Cutsem et al. 2001): 404 days
- Median time to disease progression (colorectal cancer; Van Cutsem et al. 2001): 137 days
- Response rate (colorectal cancer; Van Cutsem et al. 2001, P=0.027): 21%

Structure (SMILES): O=c1ccn(C2OC(CO)C(O)C2(F)F)c(=O)[nH]1 (stereo not shown) [dFdU]
- Cmax, dFdC + PHY906 ([6]; Radioactivity detection): 48000 ng/mL
- Cmax, dFdC alone ([6]; Radioactivity detection): 31000 ng/mL
- Tmax, dFdC + PHY906 ([6]; Radioactivity detection): 2 h
- Tmax, dFdC alone ([6]; Radioactivity detection): 1 h
- T½, dFdC + PHY906 ([6]; Radioactivity detection): 0.82 h
- T½, dFdC alone ([6]; Radioactivity detection): 1.55 h
- AUC, dFdC + PHY906 ([6]; Radioactivity detection): 8.5 mg·min/mL
- AUC, dFdC alone ([6]; Radioactivity detection): 5.8 mg·min/mL
- Cmax, dFdC + PHY906 ([6]; UV detection): 22000 ng/mL
- Cmax, dFdC alone ([6]; UV detection): 14000 ng/mL
- Tmax, dFdC + PHY906 ([6]; UV detection): 2 h
- Tmax, dFdC alone ([6]; UV detection): 1 h
- T½, dFdC + PHY906 ([6]; UV detection): 1.16 h
- T½, dFdC alone ([6]; UV detection): 1.64 h
- AUC, dFdC + PHY906 ([6]; UV detection): 4.4 mg·min/mL
- AUC, dFdC alone ([6]; UV detection): 3.1 mg·min/mL
- Levels in circulation in the presence or absence of PHY906 ([6]; plasma): not a dramatic difference

Structure (SMILES): COc1cccc2c1C(=O)c1c(O)c3c(c(O)c1C2=O)C[C@@](O)(C(=O)CO)C[C@@H]3O[C@H]1C[C@H](N)[C@H](O)[C@H](C)O1 [doxorubicin, Doxorubicin]
- Response rate (hepatocellular carcinoma; eight trials, 475 evaluable patients (range 0-35%)): 16%
